Laboratory results from ChEMBL document CHEMBL3301361, “Experimental in vitro DMPK and physicochemical data on a set of publicly disclosed compounds”.
Values after ≈ are worked out from the molar mass of the structure shown.

Assays:
in vitro [1] = settings: human, plasma
in vitro [2] = settings: human
in vitro [3] = settings: hepatocytes
physchem [4] = settings: octan-1-ol/water
physchem [5] = settings: pH 7.4 buffer

fraction unbound at 5 h (in vitro [1]; PPB)	microsomal CLint (in vitro [2]; liver microsomes)	hepatocyte CLint (in vitro [3])	logD (physchem [4]; pH 7.4, LogD7.4)	logD (physchem [4]; pH 7.4)	fraction unbound at 5 h (in vitro [1])	solubility thermodynamic (physchem [5])	microsomal CLint (in vitro [2]; microsomes)	SMILES
–	–	7.94 µL/min/1e6 cells	–	1.4	0.179	–	5.13 µL/min/mg	O=C1Nc2ccccc2B(O)N1c1ccccc1
–	–	72 µL/min/1e6 cells	–	–	–	1510 µM (≈ 650 µg/mL)	25 µL/min/mg	O=C(CCOCCc1ccccc1)NCCNCCc1ccc(O)c2nc(O)sc12
–	–	21.4 µL/min/1e6 cells	–	–	–	1510 µM (≈ 341 µg/mL)	50.1 µL/min/mg	Cc1nc2ccccn2c1-c1ccnc(N)n1
0.016	85.1 µL/min/mg	12 µL/min/1e6 cells	1.94	–	–	–	–	CN[C@@H](C)C(=O)N[C@H](C(=O)N1CC[C@H]2CC[C@H](NC(=O)c3cccc4ccccc34)[C@H]21)C(C)(C)C
–	> 150 µL/min/mg	> 150 µL/min/1e6 cells	–	–	0.0052	–	–	Cc1[nH]c2ccc(-c3nnc(SCC(=O)N4CCCc5ccccc54)o3)cc2c1C
0.0099	–	7 µL/min/1e6 cells	0.85	–	–	–	66 µL/min/mg	O=C(O)c1cncc(-c2ccc(Cl)c(C(=O)NCC34CC5CC(CC(C5)C3)C4)c2)c1
0.0149	–	> 150 µL/min/1e6 cells	0.87	–	–	–	28.2 µL/min/mg	CC(=O)c1cc2ccc(O)cc2oc1=O
0.0024	–	103 µL/min/1e6 cells	–	–	–	–	7 µL/min/mg	COc1ccccc1C(=O)Nc1ccc(Cc2ccncc2)cc1
–	30.2 µL/min/mg	13.5 µL/min/1e6 cells	2.45	–	–	26.3 µM (≈ 13 µg/mL)	–	CN1CCN(CCOc2n[nH]c3ncnc(Nc4ccc(OCc5ccccn5)c(Cl)c4)c23)CC1
0.002	4.17 µL/min/mg	66.1 µL/min/1e6 cells	1.63	–	–	–	–	Cc1oc(-c2ccccc2)cc1C(=O)Nc1cccc(C(=O)O)c1
0.04	104 µL/min/mg	> 150 µL/min/1e6 cells	2.79	–	–	–	–	COc1cnc(-c2ccccn2)nc1N(C)c1ccccc1
0.546	6.92 µL/min/mg	3.39 µL/min/1e6 cells	–	–	–	–	–	CC1(C)S[C@@H]2[C@H](NC(=O)C(C(=O)O)c3ccccc3)C(=O)N2[C@H]1C(=O)O (some centres undefined) [CARBENICILLIN]
–	–	38 µL/min/1e6 cells	–	–	–	91.2 µM (≈ 47.7 µg/mL)	11 µL/min/mg	CCNC(=O)c1cnc(N2CCN(C3CCN(Cc4ccc(Cl)cc4F)CC3)[C@@H](CC)C2)c(Cl)c1
0.119	20.4 µL/min/mg	29.5 µL/min/1e6 cells	–	–	–	–	–	Nc1nc2ccc(-c3ccncc3)cc2s1
0.0019	95.5 µL/min/mg	> 150 µL/min/1e6 cells	–	–	–	–	–	CNc1nc(C)c(-c2nc(Nc3cccc(N4CCCCC4)c3)ncc2C#N)s1
–	> 150 µL/min/mg	148 µL/min/1e6 cells	–	–	0.028	–	–	COCCNc1nc(NCc2ccccc2F)c2sccc2n1
–	60.3 µL/min/mg	52.5 µL/min/1e6 cells	–	–	–	1.6 µM (≈ 0.586 µg/mL)	–	Oc1ncnc2c1c(-c1ccccc1)cn2-c1ccc(Br)cc1
–	22 µL/min/mg	11 µL/min/1e6 cells	–	–	–	1.5 µM (≈ 0.714 µg/mL)	–	CN1CCC(Oc2cccc3ncnc(Nc4ccc(OCc5ccccn5)c(Cl)c4)c23)CC1
–	17.4 µL/min/mg	17 µL/min/1e6 cells	–	–	–	1.3 µM (≈ 0.548 µg/mL)	–	C[C@]1(O)C[C@@H](c2nc(-c3ccc4ccc(-c5ccccc5)nc4c3)c3c(N)nccn32)C1 [LINSITINIB]
0.0022	> 150 µL/min/mg	138 µL/min/1e6 cells	–	–	–	–	–	COc1ccc(-c2nc3c(NCCCN(C)C(=O)C4CCC4)c(Br)cnc3[nH]2)cc1
0.0035	> 150 µL/min/mg	> 150 µL/min/1e6 cells	–	–	–	–	–	CCc1nc2ccc(C(=O)NCc3ccc4c(c3)OCO4)cn2c1N(C)Cc1cccs1
–	–	77 µL/min/1e6 cells	2.7	–	–	58.9 µM (≈ 18.1 µg/mL)	71 µL/min/mg	CCN(CC)CCn1c2ccccc2c2cnc(N)c(C#N)c21
–	–	20.9 µL/min/1e6 cells	3.86	–	–	5.5 µM (≈ 2.08 µg/mL)	29.5 µL/min/mg	CS(=O)(=O)c1ccc([C@@H](CC2CCCC2)C(=O)Nc2nccs2)cc1 [Ro-281675]

The remaining lines, values behind:

SMILES	fraction unbound at 5 h (in vitro [1]; PPB)	microsomal CLint (in vitro [2]; liver microsomes)	hepatocyte CLint (in vitro [3])	logD (physchem [4]; pH 7.4, LogD7.4)	logD (physchem [4]; pH 7.4)	fraction unbound at 5 h (in vitro [1])	solubility thermodynamic (physchem [5])	microsomal CLint (in vitro [2]; microsomes)
O=C(CSc1nc2c(c(=O)n1-c1ccccc1)SCC2)Nc1ncc(-c2ccccc2)s1	0.0023	> 150 µL/min/mg	129 µL/min/1e6 cells	–	–	–	–	–
Clc1cccc(-c2cnc3ccc(NC4CCOCC4)nn23)c1	0.009	9.12 µL/min/mg	14.8 µL/min/1e6 cells	4.3	–	–	–	–
O=C(Nc1ccncc1)c1cccc2ccccc12	–	60.3 µL/min/mg	25.1 µL/min/1e6 cells	–	3.1	0.069	–	–
CC[C@@H](Nc1c(Nc2cccc(C(=O)N(C)C)c2O)c(=O)c1=O)c1ccccc1	–	< 3 µL/min/mg	65 µL/min/1e6 cells	2.14	–	–	646 µM (≈ 254 µg/mL)	–
CC(C)N(CCCNC(=O)Nc1ccc(C(C)(C)C)cc1)C[C@H]1O[C@@H](n2cnc3c(N)ncnc32)[C@H](O)[C@@H]1O	0.285	112 µL/min/mg	26.9 µL/min/1e6 cells	2.2	–	–	–	–
Cc1cc(CN2CCc3ccccc3C2C(=O)Nc2ccc(Cl)cc2Cl)ccc1OCC(=O)O (centres undefined)	–	–	20 µL/min/1e6 cells	2.63	–	–	166 µM (≈ 82.9 µg/mL)	15 µL/min/mg
C[C@@H](NC(=O)C1CCNCC1)c1ccc(Nc2ncc3cc(-c4ccncc4)ccc3n2)cc1	0.0477	4.17 µL/min/mg	< 3 µL/min/1e6 cells	0.4	–	–	–	–
C[C@H]1C[C@@H](NS(=O)(=O)c2cc(Br)ccc2Br)CN1C#N	–	–	39 µL/min/1e6 cells	2.13	–	–	31.6 µM (≈ 13.4 µg/mL)	16 µL/min/mg
Nc1ncnc2c1ncn2[C@@H]1O[C@H](CSCCCNC(=O)Nc2ccc(Cl)cc2)[C@@H](O)[C@H]1O	0.0836	21.4 µL/min/mg	93.3 µL/min/1e6 cells	2.5	–	–	–	–
O=C(Nc1nc2ccccc2n1CCCO)c1cccc([N+](=O)[O-])c1	0.0801	–	85.1 µL/min/1e6 cells	3	–	–	–	112 µL/min/mg
CCNC(=O)C[C@H]1N=C(c2ccc(Cl)cc2)c2cc(OC)ccc2-n2c(C)nnc21	–	–	6.31 µL/min/1e6 cells	–	–	0.069	–	11.5 µL/min/mg
CN(C)CCNc1cc(-c2ccccc2)nc2cc(-c3ccc(F)cc3)nn12	–	–	24 µL/min/1e6 cells	4.5	–	–	2.1 µM (≈ 0.788 µg/mL)	11.2 µL/min/mg
CCOc1ccc2oc(C(=O)NC(CCSC)c3nc4cnccc4[nH]3)c(C)c2c1 (centres undefined)	–	17 µL/min/mg	21 µL/min/1e6 cells	4.31	–	–	10.5 µM (≈ 4.46 µg/mL)	–
CCN(CC)CCNc1ncnc2c1sc1nc(N3CCOCC3)c3c(c12)CCCC3	0.0784	9.55 µL/min/mg	26.3 µL/min/1e6 cells	3.3	–	–	–	–
CC(C)c1ccc(NC(=O)NCCCSC[C@H]2O[C@@H](n3cnc4c(N)ncnc43)[C@H](O)[C@@H]2O)cc1	0.0784	126 µL/min/mg	110 µL/min/1e6 cells	2.5	–	–	–	–
Cc1c(C(=O)Nc2ccccc2)sc2ncnc(O)c12	–	5 µL/min/mg	> 150 µL/min/1e6 cells	2.13	–	–	22.4 µM (≈ 6.39 µg/mL)	–

SMILES	fraction unbound at 5 h (in vitro [1]; PPB)	microsomal CLint (in vitro [2]; liver microsomes)	hepatocyte CLint (in vitro [3])	logD (physchem [4]; pH 7.4, LogD7.4)	logD (physchem [4]; pH 7.4)	fraction unbound at 5 h (in vitro [1])	solubility thermodynamic (physchem [5])	microsomal CLint (in vitro [2]; microsomes)
O=C(CSc1ccccc1)N1CCN(C(=O)c2ccco2)CC1	0.266	12.3 µL/min/mg	64.6 µL/min/1e6 cells	1.6	–	–	–	–
NC(=O)c1ccc(N(C(N)=O)c2c(F)cccc2F)nc1-c1ccc(F)cc1F [VX-702]	0.392	5.13 µL/min/mg	< 3 µL/min/1e6 cells	1.6	–	–	–	–
COc1ccc(N(C(=O)Oc2c(C)cccc2C)c2ccnc(Nc3ccc(N4CCN(C)CC4)cc3)n2)c(OC)c1	–	–	35.5 µL/min/1e6 cells	–	–	0.0017	–	27.5 µL/min/mg
O=C(CSc1nc2c(c(=O)n1-c1ccccc1)SCC2)Nc1ccc(-c2ccccc2)cn1	0.0017	–	> 150 µL/min/1e6 cells	–	–	–	–	> 150 µL/min/mg
COc1cc(C(=O)OCCCCNC(=N)N)cc(OC)c1O [LEONURINE]	0.619	< 3 µL/min/mg	138 µL/min/1e6 cells	–	–	–	–	–
CCOc1nc2ccc(OCCC3CCN(c4ccc(C)nn4)CC3)cc2o1	0.0028	6 µL/min/mg	4 µL/min/1e6 cells	–	–	–	–	–
O=c1[nH]c2c(O)ccc([C@@H](O)CNCCc3cccc(CNCCc4ccccc4Cl)c3)c2s1	–	–	42 µL/min/1e6 cells	1.63	–	–	118 µM (≈ 58.5 µg/mL)	19 µL/min/mg
CN(C)c1nc(NC[C@H]2CC[C@H](CNS(=O)(=O)c3ccc(Br)cc3OC(F)(F)F)CC2)nc2ccccc12	0.0005	–	50.1 µL/min/1e6 cells	–	–	–	–	117 µL/min/mg
O=C(O)Cc1ccc(N2CCC(CN3CCC(Oc4ccc(Cl)c(Cl)c4)CC3)CC2)cc1	0.02	–	9 µL/min/1e6 cells	–	–	–	–	< 3 µL/min/mg
Cc1ccc(CNC(=O)C2CCCN2S(=O)(=O)c2ccc(F)cc2)cc1 (centres undefined)	–	> 150 µL/min/mg	> 150 µL/min/1e6 cells	2.9	–	–	8.9 µM (≈ 3.35 µg/mL)	–
CSCCC(NC(=O)c1cnccn1)c1nc2ccccc2[nH]1 (centres undefined)	0.398	31 µL/min/mg	74 µL/min/1e6 cells	–	–	–	–	–
N#CC1(NC(=O)[C@@H]2CCCC[C@H]2C(=O)N2CCc3[nH]c4ccc(F)cc4c3C2)CC1	–	12.5 µL/min/mg	41.4 µL/min/1e6 cells	–	–	–	525 µM (≈ 214 µg/mL)	–
Cc1ccc(S(=O)(=O)Nc2c(C(=O)N[C@@H](C)C(C)(C)C)c(C)nn2C2CCCCC2)cc1	–	–	8 µL/min/1e6 cells	1.97	–	–	871 µM (≈ 401 µg/mL)	33 µL/min/mg
CS(=O)(=O)c1ccc([C@H](CC2CCCC2)C(=O)Nc2nccs2)cc1	–	–	35.5 µL/min/1e6 cells	3.88	–	–	5.8 µM (≈ 2.2 µg/mL)	43.6 µL/min/mg
C[C@@H](C(N)=O)c1ccc(OS(=O)(=O)C(F)(F)F)cc1	0.134	< 3 µL/min/mg	3 µL/min/1e6 cells	–	–	–	–	–
Cn1c(-c2ccccc2C(F)(F)F)nnc1C12CCC(c3noc(-c4ccc(F)cc4)n3)(CC1)CC2	–	< 3 µL/min/mg	7.94 µL/min/1e6 cells	–	–	–	0.9 µM (≈ 0.448 µg/mL)	–
